Read-outs that look alike come from different tables or passages of the source. Marks after values point to notes of the source that are not given here.
Experiments:
[1] = target: CK1α (Homo sapiens, UniProt P48729); assay: Cereblon neomorphic substrate degradation, CK1α; format: cell-based; conditions: in vitro
Source text: These drugs bind to cereblon and promote the degradation of novel (neomorphic) substrates.

[2] = Plasma protein binding, rat; format: in vitro ADME; conditions: read-out: free fraction
[3] = human, in vivo
Procedure: (§1) Study Design: In the FIH Study: Part A is a Phase I monotherapy dose escalation, and Part B is a Phase 2 monotherapy expansion at 2 RP2D doses (200 mg QD, 500 mg QD).

[4] = female, human, in vivo
Source text: The severity of adverse events was graded according to the National Cancer Institute Common Terminology Criteria for Adverse Events (NCI CTCAE) version 5.0.

[5] = clinical; conditions: human, in vivo; for AUC: AUCtau
Procedure: as §1

Sequence of CK1α (Q96SW2 whole entry partner): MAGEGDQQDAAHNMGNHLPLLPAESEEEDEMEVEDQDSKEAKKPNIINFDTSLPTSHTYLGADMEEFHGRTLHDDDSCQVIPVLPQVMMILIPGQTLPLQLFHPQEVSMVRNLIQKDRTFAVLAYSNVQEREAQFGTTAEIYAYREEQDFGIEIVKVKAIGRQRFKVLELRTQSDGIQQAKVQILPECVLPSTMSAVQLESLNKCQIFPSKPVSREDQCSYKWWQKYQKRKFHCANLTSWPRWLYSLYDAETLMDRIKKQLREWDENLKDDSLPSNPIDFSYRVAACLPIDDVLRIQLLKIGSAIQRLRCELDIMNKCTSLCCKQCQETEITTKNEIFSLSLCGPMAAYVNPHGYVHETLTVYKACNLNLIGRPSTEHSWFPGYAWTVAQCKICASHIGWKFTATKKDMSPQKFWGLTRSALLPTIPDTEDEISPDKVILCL
Sequence of CK1α (Q16531 whole entry partner): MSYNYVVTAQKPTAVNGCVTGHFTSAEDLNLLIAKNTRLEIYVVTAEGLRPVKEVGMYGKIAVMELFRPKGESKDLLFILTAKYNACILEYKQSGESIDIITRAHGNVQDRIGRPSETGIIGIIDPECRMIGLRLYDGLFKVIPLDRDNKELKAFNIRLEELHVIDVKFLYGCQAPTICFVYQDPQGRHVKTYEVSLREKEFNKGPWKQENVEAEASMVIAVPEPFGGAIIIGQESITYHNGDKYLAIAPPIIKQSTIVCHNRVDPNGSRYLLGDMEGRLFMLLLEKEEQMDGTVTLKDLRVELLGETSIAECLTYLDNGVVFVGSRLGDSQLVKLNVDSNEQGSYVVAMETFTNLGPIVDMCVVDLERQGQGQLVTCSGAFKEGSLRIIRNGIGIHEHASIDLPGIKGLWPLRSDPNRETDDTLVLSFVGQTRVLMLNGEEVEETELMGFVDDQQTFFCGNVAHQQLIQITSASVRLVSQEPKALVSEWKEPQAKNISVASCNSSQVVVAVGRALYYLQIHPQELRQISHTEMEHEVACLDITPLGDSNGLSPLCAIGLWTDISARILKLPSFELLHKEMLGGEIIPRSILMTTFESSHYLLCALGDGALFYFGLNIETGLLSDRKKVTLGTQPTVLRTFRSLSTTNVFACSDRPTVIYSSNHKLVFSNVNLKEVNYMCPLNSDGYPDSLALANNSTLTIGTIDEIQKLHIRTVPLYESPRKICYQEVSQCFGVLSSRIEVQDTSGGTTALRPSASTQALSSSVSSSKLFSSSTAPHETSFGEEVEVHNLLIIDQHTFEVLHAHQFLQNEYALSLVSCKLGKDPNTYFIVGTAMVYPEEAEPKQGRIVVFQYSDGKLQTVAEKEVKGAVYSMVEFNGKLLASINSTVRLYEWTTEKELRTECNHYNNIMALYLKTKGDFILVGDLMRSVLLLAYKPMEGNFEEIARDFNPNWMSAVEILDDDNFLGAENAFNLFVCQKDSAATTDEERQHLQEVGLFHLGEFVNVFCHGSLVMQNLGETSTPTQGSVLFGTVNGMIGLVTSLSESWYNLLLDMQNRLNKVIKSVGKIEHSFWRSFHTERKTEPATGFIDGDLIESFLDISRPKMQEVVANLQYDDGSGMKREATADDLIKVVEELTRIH
Sequence of CK1α (P48729 whole entry): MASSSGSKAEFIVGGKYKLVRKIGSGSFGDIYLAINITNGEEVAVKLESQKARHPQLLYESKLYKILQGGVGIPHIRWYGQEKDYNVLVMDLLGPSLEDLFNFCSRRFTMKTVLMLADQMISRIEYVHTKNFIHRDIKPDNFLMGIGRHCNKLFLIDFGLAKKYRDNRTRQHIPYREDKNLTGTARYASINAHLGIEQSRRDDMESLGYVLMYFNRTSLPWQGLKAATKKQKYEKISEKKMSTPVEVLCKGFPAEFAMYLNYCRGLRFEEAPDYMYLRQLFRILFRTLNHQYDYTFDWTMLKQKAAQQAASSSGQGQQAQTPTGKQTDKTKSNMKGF

## O=C1CC[C@H](N2Cc3cc(N4CCN(CC5CCN(c6ccc([C@@H]7c8ccc(O)cc8CC[C@@H]7c7ccccc7)cc6)CC5)CC4)ccc3C2=O)C(=O)N1 [Compound A, (S)-3-(5-(4-((1-(4-((1R,2S)-6-hydroxy-2-phenyl-1,2,3,4-tetrahydronaphthalen-1-yl)phenyl)piperidin-4-yl)methyl)piperazin-1-yl)-1-oxoisoindolin-2-yl)piperidine-2,6-dione]
[1]
  degradation of CK1α: did not degrade
[2]
  fraction unbound at 1 μM: 0.082
[3]; 30 mg
  CL/F: 7.4 L/h
  Rac (AUCtau): 2.6
[3]; 60 mg
  CL/F: 8.2 L/h
  Rac (AUCtau): 2.6
  Tmax: 4.2 h
[3]; 100 mg
  CL/F: 11.2 L/h
  Rac (AUCtau): 2.1
[3]; 120 mg
  CL/F: 8.8 L/h
  Cmax: 799 ng/mL
  Rac (AUCtau): 2.2
[3]; 180 mg
  CL/F: 9.4 L/h
  Cmax: 1062 ng/mL
  Rac (AUCtau): 2.3
  Tmax: 5.0 h
[3]; 200 mg
  AUCtau: 15459 ng·h/mL
  CL/F: 12.9 L/h
  Cmax: 866 ng/mL
  Rac (AUCtau): 1.9
  Tmax: 5.0 h
[3]; 250 mg
  CL/F: 12.2 L/h
[3]; 360 mg
  CL/F: 13.9 L/h
  Rac (AUCtau): 2.2
[3]; 500 mg
  CL/F: 14.5 L/h
  Cmax: 1883 ng/mL
  Rac (AUCtau): 2.2
[3]; 700 mg
  AUCtau: 26572 ^e ng·h/mL
  Cmax: 1530 ^e ng/mL
  Rac (AUCtau): 1, 4 ^g
  Tmax: 6.0 g·h
[4]
  TEAE COVID-19: 11.8%
[5]; 30 mg
  half-life: 31 h
[5]; 30 mg, Tmax
  Tmax: 4 h
[5]; 60 mg
  half-life: 33 h
[5]; 60 mg, Tmax
  Tmax: 6 h
[5]; 100 mg
  half-life: 29 h
[5]; 100 mg, Tmax
  Tmax: 5.8 h
[5]; 120 mg
  half-life: 27 h
  Cmax: 404 ng/mL
[5]; 120 mg, Tmax
  Tmax: 5.9 h
[5]; 180 mg
  half-life: 26 h
  Cmax: 555 ng/mL
[5]; 180 mg, Tmax
  Tmax: 6 h
[5]; 200 mg
  half-life: 23 h
  AUC: 9110 ng·h/mL
  Cmax: 534 ng/mL
[5]; 200 mg, Tmax
  Tmax: 5.8 h
[5]; 250 mg, AUCtau (AUC0-8)
  AUC(0-t): 2920 ng·h/mL
[5]; 250 mg, AUCtau (AUC0-12)
  AUC(0-t): 20600 ng·h/mL
[5]; 250 mg, Tmax
  Tmax: 6.9 h
[5]; 360 mg
  half-life: 28 h
[5]; 360 mg, Tmax
  Tmax: 5.8 h
[5]; 500 mg
  half-life: 28 h
  Cmax: 1050 ng/mL
[5]; 500 mg, Tmax
  Tmax: 4.9 h
[5]; 700 mg
  half-life: 12.4 h
  AUC: 19600 ng·h/mL
  Cmax: 1450 ng/mL
[5]; 700 mg, Tmax
  Tmax: 5.8 h
[5]; Tmax
  Tmax: 4.1 h
[5]; median Tmax across dose levels
  Tmax: 4 to 7 h

— patent US20260069588A1, “VEPDEGESTRANT FOR USE IN TREATING CANCER” (Arvinas Operation, Inc., priority 2022, published 2026)
